Laboratory results as given in paper PMC3173955, “Antifungal Activities of Peptides Derived from Domain 5 of High-Molecular-Weight Kininogen” (International Journal of Peptides, 2011).
Peptide text beside a SMILES is read from it.

Tests used:
[1] = tested on: M. furfur ATCC 44342; assay type: cell-based, Malassezia furfur; settings: for MIC (concentration yielding at least 95% inhibition of fungal growth): ATCC 44342, 24 h
Procedure: Malassezia furfur ATCC 44342 (CCUG 24230) was obtained from the Department of Bacteriology at Skåne University Hospital. The antifungal activity was tested in an assay described by Lopez-[…] et al., but with some minor modifications. Cells were cultured for 2 days at 37 °C in 10 mL medium containing 4% Bacto Malt Extract (Becton, Dickinson and Company, Md, USA), 1% glucose (VWR international), 1% Tween 80 (Sigma-Aldrich, St. Louis, Mo, USA) and 0.6% Bacto Peptone (Becton, Dickinson and Company, Md, USA). Cells were then washed in 1 mM sodium phosphate buffer, pH 7.4. M. furfur cells were grown in sterile 96-well microtiter plates (Costar, Corning Incorporated, Corning, USA) in a total volume of 100 μL, containing 60 μL of 1 mM sodium phosphate buffer, pH 7.4, 20 μL of culture medium, 10 μL of a 10x stock solution of the synthetic peptides, and a 10x stock solution of the fungal cell suspension, resulting in a final concentration of 1-2 × 10^5 cells/mL. Chloramphenicol was added to each well (16 μg/ml) to avoid contamination. The cells were incubated at 30°C for 24 h. To quantify the fungicidal activity, serial dilutions of the incubation mixture were plated onto agar plates and incubated 72 h at 37°C, and the number of cfu thereafter was determined by counting visible colonies. The minimal inhibitory concentration (MIC) was defined as the concentration which yielded at least 95% inhibition of fungal growth.

[2] = tested on: C. parapsilosis ATCC 90018; assay type: cell-based, Candida parapsilosis
Procedure: C. albicans ATCC 90028 and C. parapsilosis ATCC 90018 were obtained from the Department of Bacteriology Lund at Skåne University Hospital. Cells were precultured overnight on Sabouraud-dextrose-agar (Difco, Detroit, Mich) at 28°C, inoculated in 10 mL yeast extract-peptone-dextrose (YPD) broth (Sigma-Aldrich, St. Louis, Mo USA) at 28°C, and grown to mid-logarithmic phase. The cells were washed three times and diluted in 10 mM Tris, pH 7.4. Fifty μL of a suspension containing 1 × 10^6 fungal colony-forming units (cfu)/mL was incubated at 28°C for two hours with rD5, HKH20 at concentrations ranging from 0.3 μM to 60 μM, or the peptides HKH20, GKH17, GKH17WWW, and GKH17WWWWW at a concentration of 30 μM. To quantify the fungicidal activity, serial dilutions of the incubation mixture were plated onto Sabouraud-dextrose-agar plates (Difco, Detroit, Mich) and incubated for 48 h at 28°C, and the number of cfu were thereafter determined by counting visible colonies. Activity of 30 μM HKH20, GKH17, GKH17WWW, and GKH17WWWWW peptides against Candida was also tested in physiological salt conditions (0.15 M NaCl in 10 mM Tris, pH 7.4) in presence of 20% as well as 50% human plasma, and 50% human serum (in 0.15 M NaCl, 10 mM Tris, pH 7.4) (Figure 3). […]

[3] = tested on: C. albicans ATCC 90028; test: Radial diffusion assay (RDA), low salt; assay type: cell-based, Candida albicans; settings: 6 μL at 100 μM; for Antifungal activity in RDA: low salt conditions (Figure 2(c))
Procedure: (§1) Radial diffusion assay (RDA) was performed as described by Lehrer et al. with some minor modifications. Candida was grown for 16 h at 28°C in 10 mL YPD to obtain yeast form organisms. The culture was centrifuged at 2000 ×g for 10 min then washed three times with 10 mM Tris, pH 7.4. A volume containing 1 × 10^5 cfu was added to 5 mL of previously autoclaved, 42°C, underlay agarose gel that contained 1.5 mg of Tryptic Soy Broth (TSB) base, 50 mg of low-electroendosmosistype (Low-EEO) agarose type I (A-6013-25G) (Sigma-Aldrich Inc, St. Louis, Mo, USA), and 1 μL of Tween 20 (0.02% w/v) (Sigma Chemical Co.) dissolved in 10 mM Tris, pH 7.4. The fungi were directly dispensed into the agar and mixed with a vortex mixer for 10 seconds and then quickly poured out into a petri dish, 85 mm in diameter. Wells, 4 mm in diameter, were punched, and each well was then filled up with 6 μL of test sample. After incubation at 35–37°C for 3 h, 5 mL of overlay agarose gel, consisting of 300 mg TSB, 50 mg Low-EEO agarose dissolved in distilled sterilized water, was poured out on top of the underlay gel. The clear zone surrounding the wells, indicating antifungal activity, was measured after 18–24 h of incubation at 28°C. HMWK degradation products were tested for RDA inhibitory effects (Figure 1(b)). Human leukocyte (neutrophil) elastase (HLE) and freeze-thaw-disrupted polymorphonuclear neutrophils (PMNs) at equivalent concentrations as used in the HMWK degradation were incubated at 37°C for 60 minutes and added as controls (Figure 1(b)).

[4] = tested on: C. parapsilosis ATCC 90018; test: Radial diffusion assay (RDA); assay type: cell-based, Candida parapsilosis; settings: 6 μl of peptide per well (Figure 2(b))
Procedure: as §1, with “Human leukocyte (neutrophil) elastase (HLE) and freeze-thaw-disrupted polymorphonuclear neutrophils (PMNs) at equivalent concentrations as used in the HMWK degradation were incubated at 37°C for 60 minutes and added as controls (Figure 1(b)).” left out

[5] = Liposome leakage assay (carboxyfluorescein release); settings: DOPC/sterol 60/40 mol/mol, 10 μM lipid in 10 mM Tris, 5 mM glucose, pH 7.4, 37°C, CF fluorescence at 520 nm, at least duplicate (Figure 4)
From the text: The liposomes investigated were zwitterionic DOPC/cholesterol (60/40 mol/mol) or DOPC/ergosterol (60/40 mol/mol). DOPC (1,2-Dioleoyl-sn-Glycero-3-Phosphatidylcholine) was from Avanti Polar Lipids (Alabaster, USA) and of >99% purity, while ergosterol and cholesterol (>99% purity) were from Sigma-Aldrich (St. Louis, USA). Due to the long, symmetric, and unsaturated acyl chains of DOPC, several methodological advantages are reached. In particular, membrane cohesion is good, which facilitates very stable unilamellar liposomes, allowing detailed values on leakage to be obtained. The lipid mixtures were dissolved in chloroform, after which solvent was removed by evaporation under vacuum overnight. Subsequently, 10 mM Tris buffer, pH 7.4, was added together with 0.1 M carboxyfluorescein (CF) (Sigma, St. Louis, USA). After hydration, the lipid mixture was subjected to eight freeze-thaw cycles consisting of freezing in liquid nitrogen and heated to 60°C. Unilamellar liposomes of about Ø140 nm were generated by multiple extrusions through polycarbonate filters (pore size 100 nm) mounted in a LipoFast miniextruder (Avestin, Ottawa, Canada) at 22°C. […] CF release from the liposomes was determined by monitoring the emitted fluorescence at 520 nm from a liposome dispersion (10 μM lipid in 10 mM Tris, 5 mM glucose, pH 7.4). […]

NCCCC[C@H](NC(=O)[C@H](Cc1c[nH]c2ccccc12)NC(=O)CNC(=O)[C@H](CC(N)=O)NC(=O)[C@H](Cc1c[nH]cn1)NC(=O)[C@H](CCCCN)NC(=O)CNC(=O)[C@H](CC(N)=O)NC(=O)[C@H](CCCCN)NC(=O)[C@H](CCCCN)NC(=O)CNC(=O)[C@H](CCCCN)NC(=O)[C@H](CC(N)=O)NC(=O)[C@H](CCCCN)NC(=O)[C@H](Cc1c[nH]cn1)NC(=O)[C@H](CCCCN)NC(=O)CN)C(=O)O [GKH17] (H-GKHKNKGKKNGKHNGWK-OH)
MIC (concentration yielding at least 95% inhibition of fungal growth) [1]: 5 to 10 µM

NCCCC[C@H](NC(=O)CNC(=O)[C@H](CC(N)=O)NC(=O)[C@H](CCCCN)NC(=O)[C@H](CCCCN)NC(=O)CNC(=O)[C@H](CCCCN)NC(=O)[C@H](CC(N)=O)NC(=O)[C@H](CCCCN)NC(=O)[C@H](Cc1c[nH]cn1)NC(=O)[C@H](CCCCN)NC(=O)CNC(=O)[C@H](Cc1c[nH]cn1)NC(=O)CNC(=O)[C@H](Cc1c[nH]cn1)NC(=O)CNC(=O)[C@H](Cc1c[nH]cn1)NC(=O)[C@H](CCCCN)NC(=O)[C@@H](N)Cc1c[nH]cn1)C(=O)N[C@@H](Cc1c[nH]cn1)C(=O)O [HKH20] (H-HKHGHGHGKHKNKGKKNGKH-OH; N-terminus and C-terminus assumed)
Antifungal activity against M. furfur at fixed concentrations ([1]; 10 μM or 30 μM, 24 h (Figure 2(e))): antifungal at 10 and 30 μM
MIC (concentration yielding at least 95% inhibition of fungal growth) [1]: 2.5 to 5 µM
Antifungal activity in viable count assay ([2]; 0.3 μM to 60 μM, 1 × 10^6 cfu/mL, 2 h at 28°C, 10 mM Tris pH 7.4 (Figure 2(a))): potent antifungal activity
Candida cells killed (time-dependent killing) ([2]; ATCC 90018, 48 h, 30 μM, pH 7.4): > 80%
Antifungal activity in RDA [3]: showed antifungal activity
Inhibitory activity in RDA in comparison to LL-37 ([3]; low salt, P < 0.05 (Figure 2(c))): significantly more potent inhibitory activity on Candida, in comparison to LL-37
Inhibitory activity in RDA compared with reference peptides [4]: significantly higher inhibitory activity on Candida, when compared with LL-37

GGHVLDHGHKHKHGHGHGKH [GGH20]
Antifungal activity in RDA [3]: showed antifungal activity

GKHKNKGKKNGKHNGWKWWW [GKH17WWW, GKH17 hydrophobically end-tagged with three W residues at the C-terminal]
Membrane-disruptive potency, ergosterol- versus cholesterol-containing liposomes [5]: higher for ergosterol-containing liposomes than for cholesterol-containing ones
